Structure (SMILES) | melting point [°C]
O=C(Nc1ccccn1)Nc1csc(-c2ccccn2)n1 [Example 5, N-[2-(2-Pyridinyl)-4-thiazolyl]-N′-2-pyridinylurea] | 233 to 235
CCCc1cccc(NC(=O)Nc2csc(-c3ccnc(CC)c3)n2)n1 [Example 14, N-[2-(2-Ethyl-4-pyridinyl)-4-thiazolyl]-N′-2-(6-propylpyridinyl)urea] | 204 to 206
CN1CCN(c2cccc(NC(=O)Nc3csc(-c4ccncc4)n3)n2)CC1 [Example 31, N-[2-(4-Pyridinyl)-4-thiazolyl]-N′-2-[6-(1-methyl-4-piperazinyl)pyridinyl]urea] | 251 to 253
O=C(Nc1cccc(NCCCN2CCOCC2)n1)Nc1csc(-c2ccncc2)n1 [Example 33] | 215 to 217
NC(=O)c1ccc(NC(=O)Nc2csc(-c3ccncc3)n2)nc1 [Example 34, [[(2-(4-Pyridinyl)-4-thiazolylamino)carbonyl]amino]-2-pyridinyl-5-carboxamide] | 255 to 257
CN(C)CCNc1cccc(NC(=O)Nc2csc(-c3ccncc3)n2)n1 [Example 35, N-[2-(4-Pyridinyl)-4-thiazolyl]-N′-2-[6-(N″,N″-aminoethylamino)pyridinyl]urea] | 210 to 212
CC(C)(C)c1cc(NC(=O)Nc2csc(-c3cccnc3)n2)no1 [Example 37, N-[2-(3-Pyridinyl)-4-thiazolyl]-N′-[5-(1,1-dimethylethyl)-3-isoxazolyl]urea] | 230 to 232
Cc1ccc(NC(=O)Nc2csc(-c3ccccn3)n2)nc1 [Example 38, N-[2-(2-Pyridinyl)-4-thiazolyl]-N′-2-(5-methylpyridinyl)urea] | 228 to 230
Cc1cc(C)nc(NC(=O)Nc2csc(-c3ccccn3)n2)c1 [Example 40, N-[2-(2-Pyridinyl)-4-thiazolyl]-N′-2-(4,6-dimethylpyridinyl)urea] | 232 to 234
Cc1ccc2nc(NC(=O)Nc3csc(-c4ccccn4)n3)sc2c1 [Example 41, N-[2-(2-Pyridinyl)-4-thiazolyl]-N′-2-(6-methylbenzthiazolyl)urea] | 263 to 265
Cc1ccnc(NC(=O)Nc2csc(-c3ccccn3)n2)c1 [Example 42, N-[2-(2-Pyridinyl)-4-thiazolyl]-N′-2-(4-methylpyridinyl)urea] | 217 to 219
CCc1cccc(NC(=O)Nc2csc(-c3ccccn3)n2)n1 [Example 44, N-[2-(2-Pyridinyl)-4-thiazolyl]-N′-2-(6-ethylpyridinyl)urea] | 213 to 215
CCCc1cccc(NC(=O)Nc2csc(-c3ccc(OC)cc3)n2)n1 [Example 45, N-[2-(4-Methoxyphenyl)-4-thiazolyl]-N′-2-(6-propylpyridinyl)urea] | 223 to 225
CCCc1cccc(NC(=O)Nc2csc(-c3ccc(O)cc3)n2)n1 [Example 46, N-[2-(4-Hydroxyphenyl)-4-thiazolyl]-N′-2-(6-propylpyridinyl)urea] | 227 to 229
CCCc1cccc(NC(=O)Nc2csc(-c3cccc(OC)c3)n2)n1 [Example 47, N-[2-(3-Methoxyphenyl)-4-thiazolyl]-N′-2-(6-propylpyridinyl)urea] | 192 to 194
COc1cccc(-c2nc(NC(=O)Nc3ccccn3)cs2)c1 [Example 48, N-[2-(3-Methoxyphenyl)-4-thiazolyl]-N′-2-pyridinylurea] | 201 to 203
CCc1ccnc(NC(=O)Nc2csc(-c3ccccn3)n2)c1 [Example 50, N-[2-(2-Pyridinyl)-4-thiazolyl]-N′-2-(4-ethylpyridinyl)urea] | 196 to 198
CCCc1cccc(NC(=O)Nc2csc(-c3ccccn3)n2)n1 [Example 51, N-[2-(2-Pyridinyl)-4-thiazolyl]-N′-2-(6-propylpyridinyl)urea] | 210 to 212
CCCc1cccc(NC(=O)Nc2cccc(-c3ccncc3)c2)n1 [Example 54, N-[3-(4-Pyridinyl)phenyl]-N′-2-(6-propylpyridinyl)urea] | 195 to 198
